Experimental data: patent US20210369677A1, “SMALL MOLECULE ACTIVATORS OF POLYCYSTIN-2 (PKD2) AND USES THEREOF” (Northwestern University, priority 2020, published 2021)

System: polycystin-2L1
Format: cell-based
Settings: for Effect of extracellular reducing agents on polycystin-2L1 current: WT polycystin-2L1
Description: Electrophysiology. Ciliary ion currents were recorded using borosilicate glass electrodes polished to resistances of 14-22 MΩ using the cilium patch method previously described^32. Whole cell electrodes used to measure poly cystin-2L1 currents were fire polished to 1.5-4 MΩ resistances. Unless otherwise stated, whole cilia ionic currents were recorded in symmetrical [Na^+]. The pipette standard internal solution contained (in mM): 90 NaMES, 10 NaCl, 10 HEPES, 10 Na4-BAPTA (Glycine, N, N′-[1,2-ethanediylbis(oxy-2,1-phenylene)]bis[N-(carboxymethyl)]-,tetrasodium); pH was adjusted to 7.3 using NaOH. Standard bath solution contained 140 NaCl, 10 HEPES, 1.8 CaCl2); pH 7.4. All solutions were osmotically balanced to 295 (±6) mOsm with mannitol. Extracellular solutions containing TCEP and GSH were used within six hours of formulation. Data were collected using an Axopatch 200B patch clamp amplifier, Digidata 1440A, and pClamp 10 software. Whole-cilium and excised patch currents were digitized at 25 kHz and low-pass filtered at 10 kHz. In the whole cilium configuration, the holding potential was −60 mV and then depolarized using a 400 ms voltage ramp from −100 mV to 100 mV. The whole cell recordings of polycystin-2L1 currents were either activated by the same ramp protocol or by 100 ms depolarizations to 100 mV from a −100 mV holding potential. External conditions were controlled using a Warner Perfusion Fast-Step (SF-77B) system in which the patched cilia and electrode were held in the perfusate stream. Data were analyzed by Igor Pro 7.00 (Wavemetrics, Lake Oswego, Oreg.). The polycystin-2 open probability and the polycystin-2L1 tail current-voltage relationships were fit to a Boltzmann function, f(x)=1/(1+exp[V−V1/2]/k) to estimate voltage of half-maximal activation of current (V1/2).

With `[Gd]` [gadolinium] the “Block of polycystin-2L1 currents by trivalent ions” value (10 μM, plasma membrane of HEK cells) was “blocked”.

For `N[C@@H](CCC(=O)N[C@@H](CS)C(=O)NCC(=O)O)C(=O)O` [GSH, reduced glutathione], the “Effect of extracellular reducing agents on polycystin-2L1 current” value was “near complete loss of current”.

In the case of `O=C(O)CCP(CCC(=O)O)CCC(=O)O` [TCEP, tris-2-carboxyethyl phosphine], the “Effect of extracellular reducing agents on polycystin-2L1 current” value is reported as “near complete loss of current”.
